Results reported in patent US4221781A, “Synergistic penicillin-cephalosporin compositions and methods” (priority 1971, dated 1980).
Like-named read-outs stand apart in the source and are kept apart here.

Columns and labels:
[1] = tested on: clinically isolated coliform; assay: Example 7: emergence of resistance, subculturing by serial twofold broth dilution; assay type: cell-based
Method: Subculturing using a serial twofold broth dilution technique was performed with 6-(D-α-aminophenylacetamido)-penicillanic acid (I), 6-[(hexahydro-1H-azepin-1-yl)methyleneamino]penicillanic acid (II), and a 1:1 combination of I and II. The strain used was a clinically isolated coliform. As inocula were used bacteria from the tube with the highest concentration of compound still permitting visible growth to the naked eye after incubation at 37° C. overnight. The following increases in MIC values were noted.

[2] = tested on: E.coli III; assay: Example 3: in vivo activity, mean curative dose in mice infected with E.coli III; design: species or system female NMRI white mice; details: Escherichia coli, sc, 96 h, subcutaneous, read-out: CD50 (mean curative dose)
Method: The number of deaths in the various groups were recorded after 96 hours and the mean curative doses (CD50) were calculated. (In the table, LD50 gives the dilution of an overnight culture of the organism causing a 50% death rate in animals receiving no therapy; the number of LD50 -doses records the severity of the infections given to the animals.)

[3] = tested on: Klebsiella-Enterobacter; assay: Example 9: in vitro MIC, serial dilution test, Klebsiella-Enterobacter; assay type: cell-based
Method: (§1) Tryptose phosphate broth, containing the appropriate concentrations of the compounds or of the combination of them, was inoculated with 0.5×10^4 -5×10^4 organisms of the various microorganisms tested and incubated overnight at 37° C. Minimum inhibitory concentrations (M.I.C.) were taken as the concentrations of the compounds or of the combination at which no visible growth occurred.
(§2) Using the technique described in Example 1 the in vitro effect of combinations of 6-(D-α-aminophenylacetamido)-penicillanic acid (I) and 6-[(N,N-diethylformamidino)-N'-amino]penicillanic acid (VII) in the ratios 1:1, 1:2 and 2:1 against clinically isolated strains of Coliforma, Klebsiella-Enterobacter and Proteus was determined in serial dilution tests.

[4] = tested on: E.coli III; assay: Example 6: emergence of resistance, subculturing by serial twofold broth dilution; assay type: cell-based; details: Escherichia coli
Method: Subculturing using a serial twofold broth dilution technique was performed with 6-(D-α-amino-phenylacetamido)-penicillanic acid (I), 6-[(piperidyl-1)methyleneamino]penicillanic acid (IV) and a 1:1 combination of I+IV. As inocula were used bacteria from the tube with the highest concentration of compound still permitting visible growth to the naked eye after incubation at 37° C. overnight. The following increases in MIC-values were noted.

[5] = tested on: Proteus; assay: Example 9: in vitro MIC, serial dilution test, Proteus; assay type: cell-based
Method: as §1, §2

[6] = tested on: Proteus; assay: Example 4: in vitro M.I.C., serial dilution test, Proteus; assay type: cell-based
Method: as §1

[7] = tested on: Coliforma; assay: Example 9: in vitro MIC, serial dilution test, Coliforma; assay type: cell-based
Method: as §1, §2

[8] = tested on: Coliform; assay: Example 1: in vitro M.I.C., serial dilution test, coliforms; assay type: cell-based; details: 37° C overnight
Method: as §1

[9] = tested on: Proteus vulgaris; assay: Example 1: in vitro M.I.C., serial dilution test, Proteus vulgaris; assay type: cell-based
Method: as §1

[10] = tested on: Proteus; assay: Example 1: in vitro M.I.C., serial dilution test, Proteus; assay type: cell-based; details: 37° C overnight
Method: as §1

[11] = tested on: Klebsiella-Enterobacter; assay: Example 4: in vitro M.I.C., serial dilution test, Klebsiella-Enterobacter; assay type: cell-based
Method: as §1

[12] = tested on: Proteus mirabilis; assay: Example 1: in vitro M.I.C., serial dilution test, Proteus mirabilis; assay type: cell-based; details: Proteus mirabilis strain 35895; 37° C overnight
Method: as §1

[13] = tested on: Proteus (Proteus Mirabilis I 190); assay: Example 11: in vitro M.I.C. of II, cephalosporins and 1:1 combinations; assay type: cell-based; details: Proteus Mirabilis I 190, read-out: M.I.C.
Method: as §1
Using the same technique as described in Example 1 the in vitro activity of 6-[(hexahydro-1H-azepin-1-yl)methyleneamino]penicillanic acid (II), of various cephalosporins and of 1:1 combinations of II with these cephalosporins was determined against a clinically isolated strain of Proteus (Proteus Mirabilis I 190).

[14] = tested on: Klebsiella-Enterobacter (strain 4/71); assay: Example 10: in vitro M.I.C. of II, cephalosporins and 1:1 combinations; assay type: cell-based; details: Klebsiella-Enterobacter strain 4/71; read-out: M.I.C.
Method: as §1
Using the same technique as described in Example 1 the in vitro activity of 6-[(hexahydro-1H-azepin-1-yl)methyleneamino]penicillanic acid (II), of various cephalosporins previously mentioned in this specification, and of 1:1 combinations of II with these cephalosporins was determined against a clinically isolated strain of Klebsiella-Enterobacter (strain 4/71)

[15] = tested on: clinically isolated coliform bacterium; assay: Example 5: in vitro M.I.C. of IV, various penicillins and 1:1 combinations; assay type: cell-based
Method: as §1
Using the same technique as described in Example 1 the in vitro activity of 6[(piperidyl-1)-methyleneamino]-penicillianic acid (IV), of various penicillins, and of 1:1 combinations of IV with these penicillins, was determined against a clinically isolated coliform bacterium.

[16] = tested on: Coliform; assay: Example 4: in vitro M.I.C., serial dilution test, coliforms; assay type: cell-based
Method: as §1

[17] = LD50 1.5·10^-3, 6.6 LD50-doses given
[18] = LD50 8.1·10^-4, 1.2·10^4 LD50-doses given
[19] = Proteus strain 6/70, read-out: M.I.C.
[20] = Proteus vulgaris A, 37° C overnight, read-out: M.I.C.
[21] = Klebsiella-Enterobacter strain 2/70, read-out: M.I.C.

`CC1(C)S[C@@H]2[C@H](NC(=O)[C@H](N)c3ccccc3)C(=O)N2[C@H]1C(=O)O` [I, 6-(D-α-aminophenylacetamido)penicillanic acid] showed an MIC ([1]; passage 7) of 12.5 µg/mL, an MIC ([1]; passage 8) of 12.5 µg/mL and an ED50 [2, 17] of 5.5 mg/kg. The ED50 [2, 18] was 250 mg/kg, the MIC ([3]; Klebsiella-Enterobacter strain 1) was 50 µg/mL and the MIC ([3]; Klebsiella-Enterobacter strain 5) was 100 µg/mL. The MIC ([3]; Klebsiella-Enterobacter strain 7) was greater than 100 µg/mL, the MIC ([3]; Klebsiella-Enterobacter strain 8, read-out: MIC) was 25 µg/mL and the MIC ([4]; passage 0) was 1.56 µg/mL. It also gave an MIC ([4]; passage 1) of 6.25 µg/mL, an MIC ([4]; passage 2) of 25 µg/mL and an MIC ([4]; passage 3) of 50 µg/mL. The MIC ([4]; passage 4) was 50 µg/mL, the MIC ([4]; passage 5) was 100 µg/mL and the MIC ([4]; passage 6) was 100 µg/mL. It also gave an MIC [5] of 3.12 µg/mL, an MIC ([6]; Proteus strain 4/70) of 1.56 µg/mL and an MIC [6, 19] of 0.39 µg/mL. For the same molecule, the MIC ([6]; Proteus strain 7/70) was 1.56 µg/mL, the MIC ([6]; Proteus strain 9/70) was 6.25 µg/mL and the MIC ([6]; Proteus strain 10/70) was 1.56 µg/mL. It also gave an MIC ([7]; Coliforma strain 1) of 1.56 µg/mL, an MIC ([7]; Coliforma strain 4) of 3.12 µg/mL and an MIC ([7]; Coliforma strain 7) of 1.56 µg/mL. The MIC ([7]; Coliforma strain 13) was 3.12 µg/mL, the MIC ([7]; Coliforma strain 16) was 3.12 µg/mL and the MIC ([8]; Coliform strain 3/70) was 1.56 µg/mL. For the same molecule, the MIC ([8]; Coliform strain 9/70) was 3.12 µg/mL, the MIC ([8]; Coliform strain 10/70) was 3.12 µg/mL and the MIC ([8]; Coliform strain 17/70) was 3.12 µg/mL. It also gave an MIC [9] of 50 µg/mL, an MIC [9, 20] of 0.78 µg/mL and an MIC ([10]; Proteus strain 12/70) of 100 µg/mL. For the same molecule, the MIC ([10]; Proteus strain 13/70) was 100 µg/mL, the MIC ([10]; Proteus strain 20/70) was greater than 100 µg/mL and the MIC ([11]; Klebsiella-Enterobacter strain 1/70) was 50 µg/mL. The MIC [11, 21] was 25 µg/mL, the MIC ([11]; Klebsiella-Enterobacter strain 5/70) was 100 µg/mL and the MIC ([11]; Klebsiella-Enterobacter strain 7/70) was greater than 100 µg/mL. The MIC ([11]; Klebsiella-Enterobacter strain 9/70) was 50 µg/mL, the MIC ([11]; Klebsiella-Enterobacter strain 10/70) was 50 µg/mL and the MIC ([11]; Klebsiella-Enterobacter strain 431) was 100 µg/mL. For the same molecule, the MIC [12] was 25 µg/mL.

`[N-]=[N+]=NCC1=C(C(=O)O)N2C(=O)C(NC(=O)Cc3cccs3)C2SC1` (stereo not drawn) [EPC 821/4II] showed an MIC [13] of 12.5 µg/mL and an MIC [14] of 100 µg/mL.

`CC1=C(C(=O)O)N2C(=O)[C@@H](NC(=O)[C@H](N)c3ccccc3)[C@H]2SC1` [Cephalexine] gave an MIC [13] of 25 µg/mL and an MIC [14] of 50 µg/mL.

With `CC1(C)S[C@@H]2[C@H](N=CN3CCCCCC3)C(=O)N2[C@H]1C(=O)O` [II, 6-[(hexahydro-1H-azepin-1-yl)methyleneamino]penicillanic acid] the MIC [13] was greater than 100 µg/mL, the MIC ([1]; passage 0) was 0.39 µg/mL and the MIC ([1]; passage 1) was 6.25 µg/mL. It also gave an MIC ([1]; passage 2) of 25 µg/mL, an MIC ([1]; passage 3) of 25 µg/mL and an MIC ([1]; passage 4) of 25 µg/mL. The MIC ([1]; passage 5) was 25 µg/mL, the MIC ([1]; passage 7) was 25 µg/mL and the MIC ([1]; passage 8) was 25 µg/mL. The ED50 [2, 17] was 2 mg/kg, the ED50 [2, 18] was greater than 500 mg/kg and the MIC [14] was greater than 100 µg/mL. For the same molecule, the MIC ([8]; Coliform strain 3/70) was 12.5 µg/mL, the MIC ([8]; Coliform strain 17/70) was 0.78 µg/mL and the MIC [9, 20] was 0.19 µg/mL. The MIC ([9]; Proteus vulgaris B, 37° C overnight, read-out: M.I.C.) was 1.56 µg/mL, the MIC ([10]; Proteus strain 12/70, read-out: M.I.C.) was 3.12 µg/mL and the MIC ([10]; Proteus strain 13/70, read-out: M.I.C.) was 3.12 µg/mL. It also gave an MIC ([10]; Proteus strain 20/70, read-out: M.I.C.) greater than 100 µg/mL and an MIC [12] of 0.78 µg/mL.

With `CC(=O)OCC1=C(C(=O)O)N2C(=O)C(NC(=O)Cc3ccccc3)C2SC1` (stereo not drawn) [EPC 807 2/b] the MIC [13] was 25 µg/mL and the MIC [14] was greater than 100 µg/mL.

For `CC1(C)S[C@@H]2[C@H](N=CN3CCCCC3)C(=O)N2[C@H]1C(=O)O` [IV, 6-[(piperidyl-1)-methyleneamino]penicillanic acid], the MIC [15] was 6.25 µg/mL, the MIC ([4]; passage 0) was 0.78 µg/mL and the MIC ([4]; passage 1) was 6.25 µg/mL. It also gave an MIC ([4]; passage 2) of 6.28 µg/mL, an MIC ([4]; passage 3) of 25 µg/mL and an MIC ([4]; passage 4) of 25 µg/mL. For the same molecule, the MIC ([4]; passage 5) was 25 µg/mL, the MIC ([4]; passage 6) was 25 µg/mL and the MIC ([16]; Coliform strain 7/70) was 1.56 µg/mL. It also gave an MIC ([16]; Coliform strain 16/70) of 1.56 µg/mL, an MIC ([16]; Coliform strain 17/70) of 1.56 µg/mL and an MIC ([6]; Proteus strain 4/70, read-out: M.I.C.) of 25 µg/mL. The MIC [6, 19] was 3.12 µg/mL, the MIC ([6]; Proteus strain 7/70, read-out: M.I.C.) was 50 µg/mL and the MIC ([6]; Proteus strain 9/70, read-out: M.I.C.) was 100 µg/mL. The MIC ([6]; Proteus strain 10/70, read-out: M.I.C.) was 25 µg/mL, the MIC ([11]; Klebsiella-Enterobacter strain 1/70, read-out: M.I.C.) was greater than 100 µg/mL and the MIC [11, 21] was 12.5 µg/mL. The MIC ([11]; Klebsiella-Enterobacter strain 5/70, read-out: M.I.C.) was greater than 100 µg/mL, the MIC ([11]; Klebsiella-Enterobacter strain 7/70, read-out: M.I.C.) was greater than 100 µg/mL and the MIC ([11]; Klebsiella-Enterobacter strain 9/70, read-out: M.I.C.) was 3.12 µg/mL. For the same molecule, the MIC ([11]; Klebsiella-Enterobacter strain 10/70, read-out: M.I.C.) was greater than 100 µg/mL and the MIC ([11]; Klebsiella-Enterobacter strain 431, read-out: M.I.C.) was greater than 100 µg/mL.

With `CC(=O)OCC1=C(C(=O)O)N2C(=O)C(NC(=O)CSc3ccccc3)C2SC1` (stereo not drawn) [EPC 825/1] the MIC [13] was 25 µg/mL and the MIC [14] was greater than 100 µg/mL.

With `Cc1nnc(SCC2=C(C(=O)O)N3C(=O)[C@@H](NC(=O)Cn4cnnn4)[C@H]3SC2)s1` [Cephazoline] the MIC [13] was 6.25 µg/mL and the MIC [14] was 12.5 µg/mL.
